Measurements as given in PMC6274539, “Photoactivatable Caged Prodrugs of VEGFR-2 Kinase Inhibitors” (Molecules, 2016).
Where two headings read alike, the source gives them in different places.

Experiments:
[1] = target: T1, VEGFR-2 (Homo sapiens, UniProt P35968); experiment: radiometric 33PanQinase VEGFR-2 kinase assay (ProQinase); assay type: biochemical; conditions: 10 semi-log concentrations, single samples, 1% DMSO
T1 construct: determined using VEGFR-2 protein kinase by a radiometric ^33PanQinase® assay; purchased ProQinase (Freiburg, Germany)
Protocol: As predicted by molecular modeling, insertion of the protecting group DMNB should diminish the inhibitory activity both of the maleimide 1 and the carbazole 3. […] The IC50 values towards VEGFR-2 were determined (Table 1).
The VEGFR-2 IC50 profile for 1, 3, 4 and 5 was determined using VEGFR-2 protein kinase by a radiometric ^33PanQinase® assay. […] Prior to testing, the compounds were dissolved to prepare 1 × 10^−2 M stock solutions in 100% DMSO. The final DMSO concentration in the reaction cocktails was 1% in all cases. Analyses were performed by ProQinase (Freiburg, Germany).

[2] = target: SRPK1 (Homo sapiens, UniProt Q96SB4); experiment: kinase profiling, radioactive filter binding assay; assay type: biochemical; conditions: 0.1 µM compound, assay duplicates; read-out: residual activity of SRPK1, mean percentage activity
SRPK1, sequence (Q96SB4 whole entry): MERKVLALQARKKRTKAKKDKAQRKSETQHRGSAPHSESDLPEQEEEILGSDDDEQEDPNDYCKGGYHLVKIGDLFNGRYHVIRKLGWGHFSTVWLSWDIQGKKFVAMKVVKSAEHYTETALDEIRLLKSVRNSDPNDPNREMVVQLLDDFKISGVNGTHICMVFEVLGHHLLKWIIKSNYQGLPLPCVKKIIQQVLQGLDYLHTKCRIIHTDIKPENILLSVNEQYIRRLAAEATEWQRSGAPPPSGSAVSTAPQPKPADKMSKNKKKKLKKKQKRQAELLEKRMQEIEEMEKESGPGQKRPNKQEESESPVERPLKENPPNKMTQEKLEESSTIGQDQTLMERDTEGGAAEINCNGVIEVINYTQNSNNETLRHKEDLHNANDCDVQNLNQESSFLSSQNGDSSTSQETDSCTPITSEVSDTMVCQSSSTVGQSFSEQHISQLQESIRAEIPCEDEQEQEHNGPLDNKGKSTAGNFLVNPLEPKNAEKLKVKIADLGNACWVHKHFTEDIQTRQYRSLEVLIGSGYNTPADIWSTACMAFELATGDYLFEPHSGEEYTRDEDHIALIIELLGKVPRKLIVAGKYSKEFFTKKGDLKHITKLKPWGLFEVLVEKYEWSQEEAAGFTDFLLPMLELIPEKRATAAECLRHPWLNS
Protocol: (§1) The used method was a radioactive filter binding assay using ^33P ATP, for details see references. The substances were dissolved in DMSO at tested concentration of 0.1 µM. The mean percentage residual kinase activity and standard deviations of assay duplicates were determined. Analyses were performed by the International Center for Kinase Profiling at the University of Dundee, UK.

[3] = target: MNK1 (Homo sapiens, UniProt Q9BUB5); experiment: kinase profiling, radioactive filter binding assay; assay type: biochemical; conditions: 0.1 µM compound, assay duplicates; read-out: residual activity of MNK1, mean percentage activity
Protocol: as §1

[4] = target: SGK1 (Homo sapiens, UniProt O00141); experiment: kinase profiling, radioactive filter binding assay; assay type: biochemical; conditions: 0.1 µM compound, assay duplicates; read-out: residual activity of SGK1, mean percentage activity
Protocol: as §1

[5] = target: CAMKKb (Homo sapiens, UniProt Q96RR4); experiment: kinase profiling, radioactive filter binding assay; assay type: biochemical; conditions: 0.1 µM compound, assay duplicates; read-out: residual activity of CAMKKb, mean percentage activity
CAMKKb, sequence (Q96RR4 whole entry): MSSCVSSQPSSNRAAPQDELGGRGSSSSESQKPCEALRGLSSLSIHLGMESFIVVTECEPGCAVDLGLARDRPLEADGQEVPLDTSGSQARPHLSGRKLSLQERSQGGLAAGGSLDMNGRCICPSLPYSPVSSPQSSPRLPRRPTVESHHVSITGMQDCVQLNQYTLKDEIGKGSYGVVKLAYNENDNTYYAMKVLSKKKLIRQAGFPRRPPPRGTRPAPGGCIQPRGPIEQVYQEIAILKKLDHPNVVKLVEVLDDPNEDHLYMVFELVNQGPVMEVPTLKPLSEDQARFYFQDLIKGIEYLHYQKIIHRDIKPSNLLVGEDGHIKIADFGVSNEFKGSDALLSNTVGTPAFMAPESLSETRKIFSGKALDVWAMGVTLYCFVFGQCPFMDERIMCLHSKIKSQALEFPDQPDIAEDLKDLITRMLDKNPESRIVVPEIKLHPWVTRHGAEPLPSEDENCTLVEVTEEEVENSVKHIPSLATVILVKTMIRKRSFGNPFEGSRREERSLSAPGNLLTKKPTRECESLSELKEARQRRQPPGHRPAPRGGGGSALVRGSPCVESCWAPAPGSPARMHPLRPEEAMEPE
Protocol: as §1

[6] = target: p38s MAPK (Homo sapiens, UniProt O15264); experiment: kinase profiling, radioactive filter binding assay; assay type: biochemical; conditions: 0.1 µM compound, assay duplicates; read-out: residual activity of p38s MAPK, mean percentage activity
p38s MAPK, sequence (O15264 whole entry): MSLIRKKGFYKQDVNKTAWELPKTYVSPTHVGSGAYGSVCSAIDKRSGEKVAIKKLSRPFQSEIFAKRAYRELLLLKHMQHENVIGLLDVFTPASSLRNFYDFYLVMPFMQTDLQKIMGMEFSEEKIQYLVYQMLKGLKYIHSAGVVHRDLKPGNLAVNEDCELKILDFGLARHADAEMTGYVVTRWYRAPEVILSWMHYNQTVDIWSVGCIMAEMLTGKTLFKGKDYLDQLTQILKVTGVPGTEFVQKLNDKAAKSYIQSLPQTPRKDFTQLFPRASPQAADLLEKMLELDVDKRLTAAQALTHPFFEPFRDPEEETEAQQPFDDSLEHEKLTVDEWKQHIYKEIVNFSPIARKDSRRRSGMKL
Protocol: as §1

[7] = target: CHK1 (Homo sapiens, UniProt O14757); experiment: kinase profiling, radioactive filter binding assay; assay type: biochemical; conditions: 0.1 µM compound, assay duplicates; read-out: residual activity of CHK1, mean percentage activity
Protocol: as §1

[8] = target: p38g MAPK (Homo sapiens, UniProt P53778); experiment: kinase profiling, radioactive filter binding assay; assay type: biochemical; conditions: 0.1 µM compound, assay duplicates; read-out: residual activity of p38g MAPK, mean percentage activity
Protocol: as §1

[9] = target: RSK2 (Homo sapiens, UniProt P51812); experiment: kinase profiling, radioactive filter binding assay; assay type: biochemical; conditions: 0.1 µM compound, assay duplicates; read-out: residual activity of RSK2, mean percentage activity
Protocol: as §1

[10] = target: Aurora B (Homo sapiens, UniProt Q96GD4); experiment: kinase profiling, radioactive filter binding assay; assay type: biochemical; conditions: 0.1 µM compound, assay duplicates; read-out: residual activity of Aurora B, mean percentage activity
Protocol: as §1

[11] = test system: PHK; experiment: kinase profiling, radioactive filter binding assay; assay type: biochemical; conditions: 0.1 µM compound, assay duplicates
Protocol: as §1

[12] = target: ROCK 2 (Homo sapiens, UniProt O75116); experiment: kinase profiling, radioactive filter binding assay; assay type: biochemical; conditions: 0.1 µM compound, assay duplicates; read-out: residual activity of ROCK 2, mean percentage activity
ROCK 2, sequence (O75116 whole entry): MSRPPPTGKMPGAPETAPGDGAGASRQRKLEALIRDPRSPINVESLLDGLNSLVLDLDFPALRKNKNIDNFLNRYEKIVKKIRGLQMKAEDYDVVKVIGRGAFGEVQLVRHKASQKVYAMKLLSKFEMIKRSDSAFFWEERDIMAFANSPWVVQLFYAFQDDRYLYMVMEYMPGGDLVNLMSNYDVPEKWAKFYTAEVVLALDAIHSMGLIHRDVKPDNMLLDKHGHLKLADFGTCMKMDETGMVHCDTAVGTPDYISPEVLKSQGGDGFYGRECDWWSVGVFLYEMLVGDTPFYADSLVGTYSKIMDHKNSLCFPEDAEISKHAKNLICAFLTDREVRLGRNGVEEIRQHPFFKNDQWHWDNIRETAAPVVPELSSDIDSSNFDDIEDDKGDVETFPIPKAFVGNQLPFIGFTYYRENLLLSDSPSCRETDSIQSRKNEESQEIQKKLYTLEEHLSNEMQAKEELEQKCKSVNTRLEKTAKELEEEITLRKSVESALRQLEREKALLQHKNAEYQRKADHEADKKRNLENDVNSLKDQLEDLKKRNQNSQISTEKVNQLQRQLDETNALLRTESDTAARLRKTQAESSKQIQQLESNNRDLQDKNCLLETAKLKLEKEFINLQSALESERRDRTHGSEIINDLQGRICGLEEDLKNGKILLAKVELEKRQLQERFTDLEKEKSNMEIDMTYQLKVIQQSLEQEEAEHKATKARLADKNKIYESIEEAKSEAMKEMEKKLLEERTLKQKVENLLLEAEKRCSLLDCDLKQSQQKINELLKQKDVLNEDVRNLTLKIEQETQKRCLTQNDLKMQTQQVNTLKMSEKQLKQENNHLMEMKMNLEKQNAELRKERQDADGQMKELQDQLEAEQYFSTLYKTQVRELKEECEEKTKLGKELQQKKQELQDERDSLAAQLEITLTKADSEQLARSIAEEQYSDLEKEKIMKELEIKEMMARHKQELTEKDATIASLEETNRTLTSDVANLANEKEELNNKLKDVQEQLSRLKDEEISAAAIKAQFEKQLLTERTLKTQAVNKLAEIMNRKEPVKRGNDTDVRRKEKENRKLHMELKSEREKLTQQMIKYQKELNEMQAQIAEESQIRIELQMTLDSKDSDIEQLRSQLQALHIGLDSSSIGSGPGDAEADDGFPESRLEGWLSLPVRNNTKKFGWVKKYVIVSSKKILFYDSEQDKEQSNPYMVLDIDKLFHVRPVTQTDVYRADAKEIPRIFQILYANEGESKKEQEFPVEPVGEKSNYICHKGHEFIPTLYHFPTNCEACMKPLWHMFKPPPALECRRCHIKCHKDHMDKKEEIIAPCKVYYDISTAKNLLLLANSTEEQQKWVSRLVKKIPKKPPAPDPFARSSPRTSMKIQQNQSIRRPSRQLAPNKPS
Protocol: as §1

[13] = target: YES1 (Homo sapiens, UniProt P07947); experiment: kinase profiling, radioactive filter binding assay; assay type: biochemical; conditions: 0.1 µM compound, assay duplicates; read-out: residual activity of YES1, mean percentage activity
YES1, sequence (P07947 whole entry): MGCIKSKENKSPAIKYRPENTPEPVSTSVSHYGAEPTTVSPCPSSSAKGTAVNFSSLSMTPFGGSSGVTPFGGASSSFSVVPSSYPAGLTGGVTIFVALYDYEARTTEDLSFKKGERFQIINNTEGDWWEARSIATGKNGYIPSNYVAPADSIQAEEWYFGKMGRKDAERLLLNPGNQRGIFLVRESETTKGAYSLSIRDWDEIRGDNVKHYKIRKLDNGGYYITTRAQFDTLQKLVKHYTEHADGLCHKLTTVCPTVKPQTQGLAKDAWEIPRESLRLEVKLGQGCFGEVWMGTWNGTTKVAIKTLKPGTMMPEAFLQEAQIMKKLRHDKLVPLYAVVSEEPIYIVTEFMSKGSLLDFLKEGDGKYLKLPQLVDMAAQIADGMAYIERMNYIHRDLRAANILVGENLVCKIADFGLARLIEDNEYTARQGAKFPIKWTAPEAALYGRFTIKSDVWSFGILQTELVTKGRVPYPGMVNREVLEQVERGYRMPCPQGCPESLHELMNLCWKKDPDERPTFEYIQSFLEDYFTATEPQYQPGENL
Protocol: as §1

[14] = target: BRSK2 (Homo sapiens, UniProt Q8IWQ3); experiment: kinase profiling, radioactive filter binding assay; assay type: biochemical; conditions: 0.1 µM compound, assay duplicates; read-out: residual activity of BRSK2, mean percentage activity
BRSK2, sequence (Q8IWQ3 whole entry): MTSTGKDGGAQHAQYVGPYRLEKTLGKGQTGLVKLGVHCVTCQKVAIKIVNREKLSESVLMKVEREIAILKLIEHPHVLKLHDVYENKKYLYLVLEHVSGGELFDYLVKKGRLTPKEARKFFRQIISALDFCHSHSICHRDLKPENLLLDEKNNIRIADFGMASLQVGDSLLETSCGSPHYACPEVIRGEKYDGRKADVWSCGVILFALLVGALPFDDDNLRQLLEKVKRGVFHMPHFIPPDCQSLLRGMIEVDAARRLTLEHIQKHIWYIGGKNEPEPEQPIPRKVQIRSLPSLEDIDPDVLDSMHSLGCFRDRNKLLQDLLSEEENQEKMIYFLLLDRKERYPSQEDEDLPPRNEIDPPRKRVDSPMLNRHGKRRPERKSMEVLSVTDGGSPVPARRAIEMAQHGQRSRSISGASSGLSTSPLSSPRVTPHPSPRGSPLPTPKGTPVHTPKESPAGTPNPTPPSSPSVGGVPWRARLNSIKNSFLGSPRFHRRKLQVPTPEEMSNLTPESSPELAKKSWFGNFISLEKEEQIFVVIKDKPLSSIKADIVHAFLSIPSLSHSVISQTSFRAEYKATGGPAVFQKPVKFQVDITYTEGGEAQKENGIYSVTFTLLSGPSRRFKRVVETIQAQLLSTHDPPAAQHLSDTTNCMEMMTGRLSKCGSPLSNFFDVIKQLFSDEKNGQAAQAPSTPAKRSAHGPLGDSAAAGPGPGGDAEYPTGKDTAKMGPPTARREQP
Protocol: as §1

[15] = target: PDK1 (Homo sapiens, UniProt O15530); experiment: kinase profiling, radioactive filter binding assay; assay type: biochemical; conditions: 0.1 µM compound, assay duplicates; read-out: residual activity of PDK1, mean percentage activity
Protocol: as §1

[16] = target: MELK (Homo sapiens, UniProt Q14680); experiment: kinase profiling, radioactive filter binding assay; assay type: biochemical; conditions: 0.1 µM compound, assay duplicates; read-out: residual activity of MELK, mean percentage activity
Protocol: as §1

[17] = target: MST2 (Homo sapiens, UniProt Q13188); experiment: kinase profiling, radioactive filter binding assay; assay type: biochemical; conditions: 0.1 µM compound, assay duplicates; read-out: residual activity of MST2, mean percentage activity
Protocol: as §1

[18] = target: TBK1 (Homo sapiens, UniProt Q9UHD2); experiment: kinase profiling, radioactive filter binding assay; assay type: biochemical; conditions: 0.1 µM compound, assay duplicates; read-out: residual activity of TBK1, mean percentage activity
TBK1, sequence (Q9UHD2 whole entry): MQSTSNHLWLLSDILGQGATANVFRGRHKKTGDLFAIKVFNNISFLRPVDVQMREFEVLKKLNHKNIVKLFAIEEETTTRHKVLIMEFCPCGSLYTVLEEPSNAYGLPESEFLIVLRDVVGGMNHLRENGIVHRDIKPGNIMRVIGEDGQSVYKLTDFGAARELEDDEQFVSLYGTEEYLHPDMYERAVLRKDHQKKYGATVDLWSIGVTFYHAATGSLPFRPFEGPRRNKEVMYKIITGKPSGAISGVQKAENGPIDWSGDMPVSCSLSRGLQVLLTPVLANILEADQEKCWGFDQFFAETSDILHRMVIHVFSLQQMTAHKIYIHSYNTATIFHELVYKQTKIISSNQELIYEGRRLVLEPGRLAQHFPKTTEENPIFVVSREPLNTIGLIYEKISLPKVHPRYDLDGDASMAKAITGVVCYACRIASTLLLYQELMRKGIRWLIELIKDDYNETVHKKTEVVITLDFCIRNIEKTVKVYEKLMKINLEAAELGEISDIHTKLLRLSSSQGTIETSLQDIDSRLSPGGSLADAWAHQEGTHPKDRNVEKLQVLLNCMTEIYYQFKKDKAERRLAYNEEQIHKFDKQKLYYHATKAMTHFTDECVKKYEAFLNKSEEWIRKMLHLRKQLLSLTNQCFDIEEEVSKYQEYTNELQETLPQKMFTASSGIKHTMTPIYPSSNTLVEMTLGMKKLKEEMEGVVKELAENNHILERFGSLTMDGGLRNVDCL
Protocol: as §1

[19] = test system: PC-3 cells; experiment: cellular growth (proliferation) assay, resazurin; assay type: cell-based
Protocol: Growth assays on VEGFR-2 dependent PC-3 cells were performed.
PC-3 cells were purchased from CLS Cell Lines Service GmbH (Eppelheim, Germany). The cells were grown in DMEM:Hams F12 (1:1) medium with 5% FCS. PC-3 cells were incubated in a 5% CO2 humidified atmosphere at 37 °C.
The cells were grown in cell flasks until approximately 90% confluence and then seeded to give 13000 cells in 100 μL per well into 96-well CulturePlates™ (Perkin Elmer). In addition to the test plates, one plate was prepared for reference measurement at day zero. All plates were incubated for 24 h at 37 °C in a humidified atmosphere with 5% CO2. Compounds 1, 3, 4, and 5 were dissolved in 100% DMSO (v/v) and added to the test plates. The final DMSO concentration in the assay was 0.5% (v/v). Viability of the cells in the day zero control plates were determined on the same day without adding any compounds. For viability measurement the resazurin assay was used. The shift in the fluorescence signal was measured at the LS55 Fluorescence spectrometer (Perkin Elmer). For the photoactivation experiments the test plates were irradiated at 365 nm for 5 min (LED source: 8× Nichia NCSU033B, Sahlmann Photochemical Solutions, 50%, 1.1 kW/m^2). Test plates were incubated for further 48 h and cell viability was defined as described above. Measured raw data was converted into percent of cell growth by using the high control (0.5% DMSO (v/v) without compound) and the day zero control. For dose-response studies, 11 different concentrations of compounds were tested in duplicates. IC50 values were calculated using the 4-parameter logarithmic fit option of GraphPad Prism 5.

[20] = Homo sapiens, PC-3, light or radiation study, 48 h, no UV irradiation, cell growth after 48 h, read-out: GI50 without Irradiation
[21] = Homo sapiens, PC-3, light or radiation study, irradiated at 365 nm, 5 min, 1.1 kW/m^2, cell growth after 48 h, read-out: GI50 after Irradiation

## COc1cc(C2=C(c3c[nH]c4ccccc34)C(=O)NC2=O)cc(OC)c1OC [Compound 1, 3-(1H-Indol-3-yl)-4-(3,4,5-trimethoxyphenyl)-1H-pyrrole-2,5-dione]
[1]
  IC50: 5 nM
[2]
  remaining activity at 0.1 µM: 85%
[3]
  remaining activity at 0.1 µM: 80%
[4]
  remaining activity at 0.1 µM: 75%
[5]
  remaining activity at 0.1 µM: 81%
[6]
  remaining activity at 0.1 µM: 108%
[7]
  remaining activity at 0.1 µM: 72%
[8]
  remaining activity at 0.1 µM: 91%
[9]
  remaining activity at 0.1 µM: 91%
[10]
  remaining activity at 0.1 µM: 84%
[11]
  residual activity of PHK, mean percentage activity: 73%
[12]
  remaining activity at 0.1 µM: 97%
[13]
  remaining activity at 0.1 µM: 84%
[14]
  remaining activity at 0.1 µM: 94%
[15]
  remaining activity at 0.1 µM: 68%
[16]
  remaining activity at 0.1 µM: 74%
[17]
  remaining activity at 0.1 µM: 53%
[18]
  remaining activity at 0.1 µM: 87%
[19]; [20]
  GI50: 6400 nM
[19]; [21]
  GI50: 2900 nM

## COc1cc2c3c(c4c5ccccc5[nH]c4c2c(OC)c1OC)C(=O)NC3=O [Compound 3, 5,6,7-Trimethoxybenzo[a]pyrrolo[3,4-c]carbazole-1,3(2H,8H)-dione]
[1]
  IC50: 152 nM
[2]
  remaining activity at 0.1 µM: 83%
[3]
  remaining activity at 0.1 µM: 79%
[4]
  remaining activity at 0.1 µM: 52%
[5]
  remaining activity at 0.1 µM: 49%
[6]
  remaining activity at 0.1 µM: 90%
[7]
  remaining activity at 0.1 µM: 34%
[8]
  remaining activity at 0.1 µM: 86%
[9]
  remaining activity at 0.1 µM: 62%
[10]
  remaining activity at 0.1 µM: 47%
[11]
  residual activity of PHK, mean percentage activity: 41%
[12]
  remaining activity at 0.1 µM: 88%
[13]
  remaining activity at 0.1 µM: 88%
[14]
  remaining activity at 0.1 µM: 66%
[15]
  remaining activity at 0.1 µM: 39%
[16]
  remaining activity at 0.1 µM: 55%
[17]
  remaining activity at 0.1 µM: 24%
[18]
  remaining activity at 0.1 µM: 85%
[19]; [20]
  GI50: 200 nM
[19]; [21]
  GI50: 380 nM
[19]; irradiated at 365 nm, 5 min, 1.1 kW/m^2, cell growth after 48 h, read-out: GI50 after Irradiation
  GI50: 400 nM
